Reference: PMC6314830 (Science Advances, 2019)

Test system: mouse skin
Test: Topical application to uninfected mouse skin
Type: in vivo
Settings: repeated daily topical treatments of the skin

`CC[C@H](C)[C@H](N)C(=O)N[C@@H](CC(N)=O)C(=O)N[C@@H](CC(C)C)C(=O)N[C@@H](CCCCN)C(=O)N[C@@H](C)C(=O)N[C@@H](CC(C)C)C(=O)N[C@@H](C)C(=O)N[C@@H](C)C(=O)N[C@@H](CC(C)C)C(=O)N[C@@H](C)C(=O)N[C@@H](CCCCN)C(=O)N[C@@H](CCCCN)C(=O)N[C@H](C(=O)N[C@@H](CC(C)C)C(=O)O)[C@@H](C)CC` [Mastoparan] was tested. Which “Local or systemic adverse effects” value did it give?
The value was “did not observe any local or systemic adverse effects”.
